# Assay results published in patent US20230373989A1, “N-PHENYLAMINOCARBONYL PYRIDINO-, PYRIMIDINO AND BENZO-TROPANES AS MODULATORS OF GPR65” (PATHIOS THERAPEUTICS LIMITED, priority 2020, published 2023).
# Read-outs that look alike come from different tables or passages of the source.
# Biological target: T1, human recombinant GPR65 (Homo sapiens, UniProt Q8IYL9)
# T1 construct: host or cells: 1321N1 human astrocytoma cells (1321N1-hrGPR65)
# Test: Human GPR65 cAMP HTRF antagonist assay
# Format: cell-based
# From the text: In one preferred embodiment, the compound prevents the increase in cytoplasmic cAMP levels expected following GPR65 activation at acidic pH. This prevention of cAMP accumulation in turn prevents downstream signalling through ICER, as described above. The “Human GPR65 cyclic adenosine monophosphate (cAMP) Homogeneous Time Resolved Fluorescence (HTRF) antagonist assay”, or simply “cAMP assay”, as described in the accompanying examples, can be used to measure the potency of GPR65 modulators, which is expressed as the concentration of compound required to reduce the increase in cAMP concentration upon GPR65 activation by 50% (i.e. an IC50).
# Human GPR65 Cyclic Adenosine Monophosphate (cAMP) Homogeneous Time Resolved Fluorescence (HTRF) Antagonist Assay Procedure
# IC50 data was obtained by the following procedure:
# 1321N1 human astrocytoma cells stably expressing human recombinant GPR65 (1321N1-hrGPR65 cells, EuroscreenFast) were cultured according to the vendor's instructions.
# Compounds were tested for their ability to antagonise GPR65, through measuring the concentration of cytoplasmic cAMP following treatment of the cells at a pH of 7.2 to activate GPR65 signalling and addition of the compound to be tested. The extent to which the expected rise in cAMP concentration upon GPR65 activation was suppressed by the added compound is indicative of its potency. The assay was carried out according to EuroscreenFast assay methodology as follows.
# On the day of the assay, test compounds were added to 384-well, low volume, white microtiter plates by acoustic dispensing. KRH buffer (5 mM KCl, 1.25 mM MgSO4, 124 mM NaCl, 25 mM HEPES, 13.3 mM Glucose, 1.25 mM KH2PO4 and 1.45 mM CaCl2) was adjusted to pH 6.5, pH 7.6 and pH 8.4 by adding NaOH. 1321N1-hGPR65 cells were rapidly thawed and diluted in KRH, pH 7.6 prior to centrifugation at 300×g for 5 min and resuspension in assay buffer (KRH, pH 7.6, supplemented with 1 mM 3-isobutyl-1-methylxanthine (IBMX) and 200 μM ethylenediaminetetraacetic acid (EDTA)). Cells were added to assay plates at a density of 2,000 cells per well in a volume of 5 μl. Assay plates were briefly centrifuged at 100×g and then incubated at room temperature for 30 min. Cells were stimulated by the addition of 5 μL KRH, pH 6.5, to achieve an assay pH of 7.2, while control wells received 5 μl KRH, pH 8.4 to achieve an assay pH of 7.9. Assay plates were briefly centrifuged at 100×g and then incubated at room temperature for 30 min.
# Accumulation of cAMP was detected by cAMP HTRF kit (Cisbio). d2-labeled cAMP and cryptate-labeled anti-cAMP antibody in Lysis and Detection Buffer (Cisbio) were added to assay plates, and the plates were incubated at room temperature for 1 h. HTRF measurements were performed using a Pherastar FSX instrument. Acceptor and donor emission signals were measured at 665 nm and 620 nm, respectively, and HTRF ratios were calculated as signal665 nm/signal620 nm×104. Data were normalised to high and low control values and fitted with 4-parameter logistic regression to determine hGPR65 IC50 values for the test compounds, which are shown in Table 1.
# [1] = 1321N1-hrGPR65 cells, assay pH 7.2, cAMP HTRF, read-out: hGPR65 IC50 (activity class)
# T1 sequence (Q8IYL9 whole entry): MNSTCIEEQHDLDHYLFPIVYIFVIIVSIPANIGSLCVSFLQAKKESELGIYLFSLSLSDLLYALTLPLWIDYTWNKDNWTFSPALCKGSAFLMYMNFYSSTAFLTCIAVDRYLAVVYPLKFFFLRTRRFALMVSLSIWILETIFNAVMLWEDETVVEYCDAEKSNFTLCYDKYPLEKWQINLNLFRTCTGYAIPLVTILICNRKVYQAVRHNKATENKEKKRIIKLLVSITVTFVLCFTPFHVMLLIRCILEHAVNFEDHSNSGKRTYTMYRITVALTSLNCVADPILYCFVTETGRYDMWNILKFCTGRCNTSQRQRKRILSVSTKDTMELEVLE
Compound,IC50 [nM],IC50 [1] [nM]
"O=C(Nc1ccc(C(F)(F)F)c(Cl)c1)N1[C@H]2CC[C@@H]1c1c[nH]c(=O)nc1C2 [Compound 43, (5R,8S)-N-(3-Chloro-4-(trifluoromethyl)phenyl)-2-oxo-3,5,6,7,8,9-hexahydro-2H-5,8-epiminocyclohepta[d]pyrimidine-10-carboxamide]",< 500,
"O=C(Nc1ccc(Cl)c(Cl)c1)N1[C@@H]2CC[C@H]1c1cnc(F)cc1C2 [Compound 198, (6R,9S)-N-(3,4-dichlorophenyl)-3-fluoro-6,7,8,9-tetrahydro-5H-6,9-epiminocyclohepta[c]pyridine-10-carboxamide]",500 to 5000,
"O=C(Nc1ccc(Cl)c(Cl)c1)N1[C@@H]2CC[C@H]1c1cncnc1C2 [Compound 53, (5S,8R)-N-(3,4-Dichlorophenyl)-6,7,8,9-tetrahydro-5H-5,8-epiminocyclohepta[d]pyrimidine-10-carboxamide]",,> 5000
"COc1ccc2c(c1)CC1CCC2N1C(=O)Nc1ccc(Cl)c(Cl)c1 (racemic) [Compound 56, (±)-N-(3,4-Dichlorophenyl)-2-methoxy-6,7,8,9-tetrahydro-5H-5,8-epiminobenzo[7]annulene-10-carboxamide]",,500 to 5000
"O=C(Nc1ccc(C(F)(F)F)c(Cl)c1)N1C2CCC1c1cnc(F)nc1C2 (racemic) [Compound 45, (±)-N-(3-Chloro-4-(trifluoromethyl)phenyl)-2-fluoro-6,7,8,9-tetrahydro-5H-5,8-epiminocyclohepta[d]pyrimidine-10-carboxamide]",< 500,
"O=C(Nc1ccc(C(F)(F)F)c(Cl)c1)N1C2CCC1c1cnc(C(F)(F)F)nc1C2 (racemic) [Compound 27, (±)-N-(3-Chloro-4-(trifluoromethyl)phenyl)-2-(trifluoromethyl)-6,7,8,9-tetrahydro-5H-5,8-epiminocyclohepta[d]pyrimidine-10-carboxamide]",,> 5000
"O=C(Nc1ccc(F)c(F)c1F)N1C2CCC1c1ccnc(F)c1C2 (racemic) [Compound 175, (±)-1-Fluoro-N-(2,3,4-trifluorophenyl)-6,7,8,9-tetrahydro-5H-5,8-epiminocyclohepta[c]pyridin-10-carboxamide]",,500 to 5000
"O=C(Nc1ccc(Cl)c(Cl)c1)N1C2CCC1c1cc(F)ncc1C2 (racemic) [Compound 69, (±)-N-(3,4-Dichlorophenyl)-3-fluoro-6,7,8,9-tetrahydro-5H-5,8-epiminocyclohepta[c]pyridine-10-carboxamide]",,500 to 5000
"O=C(Nc1ccc(Cl)c(Br)c1)N1[C@H]2CC[C@@H]1c1c[nH]c(=O)cc1C2 [Compound 145, (6S,9R)-N-(3-Bromo-4-chlorophenyl)-3-oxo-3,5,6,7,8,9-hexahydro-2H-6.9-epiminocyclohepta[c]pyridine-10-carboxamide]",< 500,
"O=C(Nc1ccc(C(F)(F)F)c(Cl)c1)N1[C@H]2CC[C@@H]1c1cncnc1C2 [Compound 38, (5R,8S)-N-(3-Chloro-4-(trifluoromethyl)phenyl)-6,7,8,9-tetrahydro-5H-5,8-epiminocyclohepta[d]pyrimidine-10-carboxamide]",< 500,
"Nc1cc2c(cn1)CC1CCC2N1C(=O)Nc1ccc(Cl)c(Cl)c1 (racemic) [Compound 64, (±)-3-Amino-N-(3,4-dichlorophenyl)-6,7,8,9-tetrahydro-5H-5,8-epiminocyclohepta[c]pyridine-10-carboxamide]",,500 to 5000
"O=C(Nc1ccc(Cl)c(Cl)c1)N1C2CCC1c1cnc(=O)[nH]c1C2 (racemic) [Compound 31, (±)-N-(3,4-Dichlorophenyl)-2-oxo-2,5,6,7,8,9-hexahydro-1H-5,8-epiminocyclohepta[d]pyrimidine-10-carboxamide]",< 500,
"O=C(Nc1ccc(C(F)(F)F)c(Cl)c1)N1C2CCC1c1ccccc1C2 (racemic) [Compound 54, (±)-N-(3-Chloro-4-(trifluoromethyl)phenyl)-6,7,8,9-tetrahydro-5H-5,8-epiminobenzo[7]annulene-10-carboxamide]",,500 to 5000
"O=C(Nc1ccc(C(F)(F)F)c(Br)c1)N1[C@H]2CC[C@@H]1c1ccnc(F)c1C2 [Compound 153, (5R,8S)-N-(3-Bromo-4-(trifluoromethyl)phenyl)-1-fluoro-6,7,8,9-tetrahydro-5H-5,8-epiminocyclohepta[c]pyridine-10-carboxamide]",< 500,
"Nc1ccc2c(c1)CC1CCC2N1C(=O)Nc1ccc(Cl)c(Cl)c1 (racemic) [Compound 73, (±)-2-Amino-N-(3,4-dichlorophenyl)-6,7,8,9-tetrahydro-5H-5,8-epiminobenzo[7]annulene-10-carboxamide]",,> 5000
"O=C(Nc1cc(Cl)ccc1F)N1C2CCC1c1cncnc1C2 (racemic) [Compound 51, (±)-N-(5-Chloro-2-fluorophenyl)-6,7,8,9-tetrahydro-5H-5,8-epiminocyclohepta[d]pyrimidine-10-carboxamide]",,500 to 5000
"O=C(Nc1ccc(F)c(C(F)(F)F)c1)N1C2CCC1c1cncnc1C2 (racemic) [Compound 5, (±)-N-(4-Fluoro-3-(trifluoromethyl)phenyl)-6,7,8,9-tetrahydro-5H-5,8-epiminocyclohepta[d]pyrimidine-10-carboxamide]",,> 5000
"O=C(Nc1cc(Cl)c(C(F)(F)F)cc1F)N1[C@@H]2CC[C@H]1c1ccc(F)nc1C2 [Compound 197, (5S,8R)-N-(5-Chloro-2-fluoro-4-(trifluoromethyl)phenyl)-2-fluoro-6,7,8,9-tetrahydro-5H-5,8-epiminocyclohepta[b]pyridine-10-carboxamide]",500 to 5000,
"COC(=O)c1cc(NC(=O)N2[C@H]3CC[C@@H]2c2ccnc(F)c2C3)c(F)cc1Cl [Compound 125, Methyl 2-chloro-4-fluoro-5-((5R,8S)-1-fluoro-6,7,8,9-tetrahydro-5H-5,8-epiminocyclohepta[c]pyridine-10-carboxamido)benzoate]",< 500,
"O=C(Nc1ccc(C(F)(F)F)c(Cl)c1)N1[C@@H]2CC[C@H]1c1cncnc1C2 [Compound 39, (5S,8R)-N-(3-Chloro-4-(trifluoromethyl)phenyl)-6,7,8,9-tetrahydro-5H-5,8-epiminocyclohepta[d]pyrimidine-10-carboxamide]",,> 5000
"N#Cc1ccc2c(c1)CC1CCC2N1C(=O)Nc1ccc(Cl)c(Cl)c1 (racemic) [Compound 72, (±)-2-Cyano-N-(3,4-dichlorophenyl)-6,7,8,9-tetrahydro-5H-5,8-epiminobenzo[7]annulene-10-carboxamide]",,500 to 5000
"O=C(Nc1ccc(Cl)c(Cl)c1)N1C2CCC1c1cc(F)ccc1C2 (racemic) [Compound 80, (±)-N-(3,4-Dichlorophenyl)-3-fluoro-6,7,8,9-tetrahydro-5H-5,8-epiminobenzo[7]annulene-10-carboxamide]",,500 to 5000
"O=C(Nc1ccc(Cl)c(Cl)c1)N1[C@@H]2CC[C@H]1[C@H](F)c1ncncc12 [Compound 115, (5R,8S,9S)-N-(3,4-Dichlorophenyl)-9-fluoro-6,7,8,9-tetrahydro-5H-5,8-epiminocyclohepta[d]pyrimidine-10-carboxamide]",,500 to 5000
"O=C(Nc1ccc(Br)c(Cl)c1)N1C2CCC1c1cncnc1C2 (racemic) [Compound 7, (±)-N-(4-Bromo-3-chlorophenyl)-6,7,8,9-tetrahydro-5H-5,8-epiminocyclohepta[d]pyrimidine-10-carboxamide]",< 500,
